Laboratory results taken from ChEMBL document CHEMBL1201862, “PubChem BioAssay data set” (2004).
Activity calls are given as the source filed them.

Tests used:
[1] = molecular target: T1, Corticotropin-releasing factor receptor 2/Corticotropin-releasing factor-binding protein (Homo sapiens, UniProt P24387+Q13324); assay: Dose Response confirmation of uHTS hits for small molecule antagonists of the CRF-binding protein and CRF-R2 receptor complex.; format: functional; settings: read-out: IC50_Mean
T1 sequence (Q13324 whole entry): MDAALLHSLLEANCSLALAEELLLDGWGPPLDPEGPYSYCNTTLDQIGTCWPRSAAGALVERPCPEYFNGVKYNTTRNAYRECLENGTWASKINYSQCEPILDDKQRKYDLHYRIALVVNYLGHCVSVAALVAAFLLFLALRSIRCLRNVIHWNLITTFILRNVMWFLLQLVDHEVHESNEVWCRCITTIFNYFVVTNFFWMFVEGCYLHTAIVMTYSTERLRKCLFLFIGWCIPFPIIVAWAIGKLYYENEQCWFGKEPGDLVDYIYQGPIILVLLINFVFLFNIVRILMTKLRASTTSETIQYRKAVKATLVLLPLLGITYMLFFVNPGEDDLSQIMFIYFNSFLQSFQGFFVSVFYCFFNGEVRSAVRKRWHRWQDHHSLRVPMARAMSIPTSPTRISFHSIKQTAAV
T1 sequence (P24387 whole entry): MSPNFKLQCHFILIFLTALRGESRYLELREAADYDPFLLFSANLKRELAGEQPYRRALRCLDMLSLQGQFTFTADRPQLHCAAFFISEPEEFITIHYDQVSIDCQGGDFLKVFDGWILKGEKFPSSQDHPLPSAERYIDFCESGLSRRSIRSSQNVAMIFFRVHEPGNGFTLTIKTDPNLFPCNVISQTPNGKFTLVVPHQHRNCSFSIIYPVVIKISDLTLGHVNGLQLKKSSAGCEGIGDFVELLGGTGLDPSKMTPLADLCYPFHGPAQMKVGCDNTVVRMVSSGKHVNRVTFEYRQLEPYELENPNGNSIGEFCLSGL

[2] = CRF-BP/CRF-R2 complex antagonists, dose response, cell-based, uHTS hits, 384-well (AID 651639); format: functional, Homo sapiens; settings: read-out: IC50_Mean
[3] = molecular target: T1, Corticotropin-releasing factor receptor 2/Corticotropin-releasing factor-binding protein; assay: activators of CRF receptor 2 with binding protein – uHTS hits, confirmation (AID 602473); format: functional; settings: read-out: EC50_Mean
Interleukin-8 [4] = molecular target: T2, Interleukin-8 (Homo sapiens, UniProt P10145); assay: Dose Response confirmation of uHTS small molecule hits for cystic fibrosis induced NFkb Inhibitors in a PAF-induced IL8 counterscreen.; format: functional; settings: read-out: IC50_Mean
T2 sequence (P10145 whole entry): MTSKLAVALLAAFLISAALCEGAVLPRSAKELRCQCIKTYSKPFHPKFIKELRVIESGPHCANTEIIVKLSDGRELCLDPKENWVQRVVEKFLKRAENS

HEK293 = assay: inhibitors of LMP1-driven NF-kB reporter, dose response, cell-based, HEK293, luciferase, cherry-pick (AID 588343); format: functional; settings: Homo sapiens
Interleukin-8 [5] = molecular target: T2, Interleukin-8; assay: Dose Response confirmation of uHTS small molecule hits for cystic fibrosis induced NFkb Inhibitors in a TNFa-induced IL8 counterscreen.; format: functional; settings: read-out: IC50_Mean
[6] = molecular target: Adenosylmethionine-8-amino-7-oxononanoate aminotransferase (Mycobacterium tuberculosis, UniProt P9WQ81); assay: Mycobacterium tuberculosis BioA enzyme inhibitor Measured in Biochemical System Using Plate Reader - 2163-02_Inhibitor_Dose_CherryPick_Activity.; format: functional, Mycobacterium tuberculosis UT205
[7] = AlphaScreen signal interference compounds, dose response, artefact control for ARNT-TACC3 interaction inhibitor project, biochemical, luminescence, cherry-pick (AID 651705); format: functional;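 further: AlphaScreen bead proximity signal that flags compounds interfering with the detection technology; potency reflects signal decrease which marks the compound as an assay artifact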
Nonstructural protein 1 = Nonstructural protein 1 (Influenza A virus, UniProt Q194T2); format: functional, Influenza A virus (A/California/07/2009(H1N1))
[8] = molecular target: T3, Sentrin-specific protease 8 (Homo sapiens, UniProt Q96LD8); assay: SENP8 protease inhibitors, SAR follow-up, biochemical, luminescence (AID 504501); format: functional
T3 sequence (Q96LD8 whole entry): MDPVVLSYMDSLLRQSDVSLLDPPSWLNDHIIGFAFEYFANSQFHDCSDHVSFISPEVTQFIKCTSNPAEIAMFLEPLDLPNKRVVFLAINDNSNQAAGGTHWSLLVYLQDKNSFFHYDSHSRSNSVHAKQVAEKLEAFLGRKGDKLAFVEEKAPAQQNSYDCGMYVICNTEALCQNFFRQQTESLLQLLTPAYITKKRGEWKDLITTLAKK

Caspase-3 = molecular target: T4, Caspase-3 (Homo sapiens, UniProt P42574); assay: SAR Analysis of small molecule inhibitors of Sentrin-specific proteases (SENPs) using a Caspase-3 Selectivity assay. [Related pubchem assays (depositor defined):AID2540, AID2599, AID434973, AID489001]; format: functional
T4 sequence (P42574 whole entry): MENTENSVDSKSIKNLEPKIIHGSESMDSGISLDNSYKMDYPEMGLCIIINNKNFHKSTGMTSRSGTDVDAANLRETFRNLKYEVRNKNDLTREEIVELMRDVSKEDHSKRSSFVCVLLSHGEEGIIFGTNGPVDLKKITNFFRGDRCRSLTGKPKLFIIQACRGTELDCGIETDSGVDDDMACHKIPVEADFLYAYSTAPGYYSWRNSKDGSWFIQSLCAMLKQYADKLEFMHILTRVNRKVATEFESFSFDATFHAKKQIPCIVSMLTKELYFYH

[9] = molecular target: T5, Sentrin-specific protease 6 (Homo sapiens, UniProt Q9GZR1); assay: SAR Analysis of small molecule inhibitors of Sentrin-specific protease 6 (SENP6) using a Luminescent assay. [Related pubchem assays (depositor defined):AID2582, AID2599]; format: functional
T5 sequence (Q9GZR1 whole entry): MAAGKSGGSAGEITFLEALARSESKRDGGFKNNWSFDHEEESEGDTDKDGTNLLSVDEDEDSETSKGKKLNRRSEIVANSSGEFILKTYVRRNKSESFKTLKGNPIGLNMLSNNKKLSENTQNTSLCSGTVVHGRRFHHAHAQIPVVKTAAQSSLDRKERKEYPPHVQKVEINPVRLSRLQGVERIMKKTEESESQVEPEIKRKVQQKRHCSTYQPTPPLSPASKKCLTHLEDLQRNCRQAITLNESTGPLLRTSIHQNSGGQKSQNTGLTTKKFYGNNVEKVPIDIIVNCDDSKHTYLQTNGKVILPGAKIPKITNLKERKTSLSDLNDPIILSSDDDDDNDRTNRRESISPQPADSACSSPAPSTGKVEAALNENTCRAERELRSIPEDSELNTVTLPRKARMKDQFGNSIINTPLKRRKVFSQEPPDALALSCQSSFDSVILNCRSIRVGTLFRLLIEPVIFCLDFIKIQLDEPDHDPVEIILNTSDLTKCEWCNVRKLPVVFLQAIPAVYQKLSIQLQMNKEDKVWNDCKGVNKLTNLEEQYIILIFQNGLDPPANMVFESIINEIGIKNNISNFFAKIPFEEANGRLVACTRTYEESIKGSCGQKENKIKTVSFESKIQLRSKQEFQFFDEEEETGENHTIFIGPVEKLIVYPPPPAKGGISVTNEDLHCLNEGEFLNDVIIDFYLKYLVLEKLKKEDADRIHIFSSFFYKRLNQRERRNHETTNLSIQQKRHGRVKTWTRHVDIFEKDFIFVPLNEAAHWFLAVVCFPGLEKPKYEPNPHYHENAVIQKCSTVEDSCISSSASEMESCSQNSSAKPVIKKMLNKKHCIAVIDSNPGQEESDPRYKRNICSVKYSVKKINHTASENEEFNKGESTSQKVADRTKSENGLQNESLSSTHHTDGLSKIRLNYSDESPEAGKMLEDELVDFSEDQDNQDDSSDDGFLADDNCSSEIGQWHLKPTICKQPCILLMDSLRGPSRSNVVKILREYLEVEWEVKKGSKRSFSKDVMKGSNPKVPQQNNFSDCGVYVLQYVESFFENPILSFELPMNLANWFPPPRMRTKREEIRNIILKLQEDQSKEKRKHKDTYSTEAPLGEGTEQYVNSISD

[10] = molecular target: Nuclear receptor subfamily 5 group A member 2 (Homo sapiens, UniProt O00482); format: functional, cell-based;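 further: HEK293T cells transfected with LRH-1 and a StAR promoter luciferase reporter; potency for inhibitors that lower LRH-1 driven reporter light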
Steroidogenic factor 1 = Steroidogenic factor 1 (Homo sapiens, UniProt Q13285); assay: Counterscreen for inverse agonists of the liver receptor homolog-1 (LRH-1; NR5A2): Luminescence-based cell-based high throughput dose response assay to identify inverse agonists of the Steroidogenic Factor 1 Nuclear Receptor (SF1; NR5A1).; format: functional
[11] = StAR promoter reporter inhibition counter-screen, dose response, counter-screen for LRH-1 inverse agonist project, cell-based, luminescence, luciferase reporter (AID 651969); format: functional
[12] = molecular target: T6, Microphthalmia-associated transcription factor (Homo sapiens, UniProt O75030); assay: TRPM1 promoter luciferase signal decrease, dose response, MITF inhibitor project, cell-based, SK-MEL-5, cherry-picked, set 3 (AID 493073); format: functional
T6 sequence (O75030 whole entry): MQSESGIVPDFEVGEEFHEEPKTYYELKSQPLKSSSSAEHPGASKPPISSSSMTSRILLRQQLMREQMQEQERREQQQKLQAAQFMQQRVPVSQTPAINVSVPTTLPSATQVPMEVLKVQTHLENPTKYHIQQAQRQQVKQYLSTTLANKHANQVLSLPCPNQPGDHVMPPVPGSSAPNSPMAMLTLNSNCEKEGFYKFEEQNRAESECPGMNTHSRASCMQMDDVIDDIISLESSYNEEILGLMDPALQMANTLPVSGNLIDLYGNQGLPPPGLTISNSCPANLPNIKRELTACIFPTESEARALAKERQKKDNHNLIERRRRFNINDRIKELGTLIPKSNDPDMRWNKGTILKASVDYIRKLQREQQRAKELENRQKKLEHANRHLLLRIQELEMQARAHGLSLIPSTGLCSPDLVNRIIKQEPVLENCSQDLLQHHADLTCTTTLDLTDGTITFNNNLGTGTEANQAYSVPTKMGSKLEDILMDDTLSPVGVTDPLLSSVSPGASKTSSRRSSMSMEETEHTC

[13] = microbe, parasite or virus in culture; format: functional; settings: Mycobacterium tuberculosis
[14] = molecular target: T7, Methionyl-tRNA synthetase, putative (Trypanosoma brucei brucei, UniProt Q38C91); format: functional, Trypanosoma brucei brucei strain 927/4 GUTat10.1;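 further: Read-out by fluorescence polarization, run as a confirmatory high-throughput counterscreen; potency of MetRS inhibitors measured by reduced AMP formation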
T7 sequence (Q38C91 whole entry): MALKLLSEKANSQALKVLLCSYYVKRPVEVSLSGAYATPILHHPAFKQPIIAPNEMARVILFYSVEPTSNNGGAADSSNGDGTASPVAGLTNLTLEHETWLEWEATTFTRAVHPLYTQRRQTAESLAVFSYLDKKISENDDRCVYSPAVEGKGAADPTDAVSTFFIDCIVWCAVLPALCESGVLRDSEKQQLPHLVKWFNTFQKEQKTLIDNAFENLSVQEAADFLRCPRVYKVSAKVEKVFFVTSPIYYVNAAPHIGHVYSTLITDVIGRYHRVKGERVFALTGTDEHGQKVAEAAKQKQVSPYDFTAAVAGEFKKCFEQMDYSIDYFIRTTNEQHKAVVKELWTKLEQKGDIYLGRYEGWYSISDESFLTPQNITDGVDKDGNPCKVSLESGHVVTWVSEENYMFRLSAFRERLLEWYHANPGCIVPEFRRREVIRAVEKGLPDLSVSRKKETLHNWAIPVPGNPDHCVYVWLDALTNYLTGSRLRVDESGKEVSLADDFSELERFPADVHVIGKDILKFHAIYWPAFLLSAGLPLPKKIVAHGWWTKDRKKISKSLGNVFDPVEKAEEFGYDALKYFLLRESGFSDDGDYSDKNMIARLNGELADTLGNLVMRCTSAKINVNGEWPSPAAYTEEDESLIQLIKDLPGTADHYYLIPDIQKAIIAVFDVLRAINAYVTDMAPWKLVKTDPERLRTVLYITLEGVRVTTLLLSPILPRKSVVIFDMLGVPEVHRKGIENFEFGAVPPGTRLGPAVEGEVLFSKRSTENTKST

[15] = Counterscreen for inhibitors of Trypanosoma brucei methionyl tRNA synthetase (MetRS): Luminescence-based cell-based high throughput dose response assay to identify compounds that are cytotoxic to Jurkat human T lymphocyte cells.; format: functional
[16] = A Cell Based Secondary Assay To Explore Cytotoxicity of Compounds that Sensitize Mycobacterium Tuberculosis to Beta-Lactam Antibiotics.; format: functional

Nuclear receptor subfamily 5 group A member 2, sequence (O00482 whole entry): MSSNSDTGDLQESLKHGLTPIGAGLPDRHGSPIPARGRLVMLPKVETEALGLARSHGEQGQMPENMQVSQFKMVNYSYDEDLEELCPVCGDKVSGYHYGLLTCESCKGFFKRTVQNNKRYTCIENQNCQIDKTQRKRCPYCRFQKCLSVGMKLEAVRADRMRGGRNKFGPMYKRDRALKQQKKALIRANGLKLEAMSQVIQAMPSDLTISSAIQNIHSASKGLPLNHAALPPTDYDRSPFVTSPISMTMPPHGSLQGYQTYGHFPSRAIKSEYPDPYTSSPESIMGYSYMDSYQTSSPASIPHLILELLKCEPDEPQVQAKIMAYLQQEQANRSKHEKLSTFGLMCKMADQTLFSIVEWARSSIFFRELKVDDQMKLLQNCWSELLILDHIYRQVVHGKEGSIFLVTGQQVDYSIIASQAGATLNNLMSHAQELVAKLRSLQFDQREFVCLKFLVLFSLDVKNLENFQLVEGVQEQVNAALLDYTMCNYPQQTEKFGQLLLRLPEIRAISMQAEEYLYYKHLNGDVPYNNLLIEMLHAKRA
Steroidogenic factor 1, sequence (Q13285 whole entry): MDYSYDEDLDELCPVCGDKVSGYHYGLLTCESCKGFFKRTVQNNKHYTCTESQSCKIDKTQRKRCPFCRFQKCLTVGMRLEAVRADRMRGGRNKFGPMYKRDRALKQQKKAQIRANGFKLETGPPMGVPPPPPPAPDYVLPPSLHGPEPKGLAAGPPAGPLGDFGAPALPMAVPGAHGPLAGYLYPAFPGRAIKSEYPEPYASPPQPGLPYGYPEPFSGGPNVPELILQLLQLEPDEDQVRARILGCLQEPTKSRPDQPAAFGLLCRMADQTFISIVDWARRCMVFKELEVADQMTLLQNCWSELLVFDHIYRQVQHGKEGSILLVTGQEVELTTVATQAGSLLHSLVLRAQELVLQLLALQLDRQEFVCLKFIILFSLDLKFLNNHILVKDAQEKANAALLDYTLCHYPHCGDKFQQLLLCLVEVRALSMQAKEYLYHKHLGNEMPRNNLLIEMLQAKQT
Adenosylmethionine-8-amino-7-oxononanoate aminotransferase, sequence (P9WQ81 whole entry): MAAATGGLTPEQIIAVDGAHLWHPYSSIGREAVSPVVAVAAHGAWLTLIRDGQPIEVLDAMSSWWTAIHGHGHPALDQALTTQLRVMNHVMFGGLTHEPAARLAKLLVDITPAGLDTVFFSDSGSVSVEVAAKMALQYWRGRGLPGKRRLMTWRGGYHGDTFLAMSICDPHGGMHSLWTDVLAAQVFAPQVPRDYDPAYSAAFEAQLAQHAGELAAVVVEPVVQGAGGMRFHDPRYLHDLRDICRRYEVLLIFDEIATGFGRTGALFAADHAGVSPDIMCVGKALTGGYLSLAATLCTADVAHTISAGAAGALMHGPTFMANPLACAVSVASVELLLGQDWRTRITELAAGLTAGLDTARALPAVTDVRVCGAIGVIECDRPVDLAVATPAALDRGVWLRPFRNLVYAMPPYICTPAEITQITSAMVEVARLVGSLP
Nonstructural protein 1, sequence (Q194T2 whole entry): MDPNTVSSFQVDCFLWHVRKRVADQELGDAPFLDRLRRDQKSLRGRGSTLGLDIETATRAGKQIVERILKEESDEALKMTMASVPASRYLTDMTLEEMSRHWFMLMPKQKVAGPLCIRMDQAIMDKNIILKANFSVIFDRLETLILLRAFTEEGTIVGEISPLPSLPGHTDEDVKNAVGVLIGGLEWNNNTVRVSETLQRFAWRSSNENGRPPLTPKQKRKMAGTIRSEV

## Cc1ccc([C@H]2C(C(=O)O)=CC[C@@H](c3ccc(Cl)cc3)N2S(=O)(=O)c2ccc(C)cc2)cc1
[1]
  IC50: 19.8 µM (active)
[2]
  IC50: > 20 µM (inactive)
[3]
  EC50: 25.4 µM (active)

## c1nc(NCc2ccc3c(c2)OCO3)c2cc(-c3ccoc3)ccc2n1
Interleukin-8 [4]
  IC50: 1.66 µM (active)
HEK293
  AC50: 2.17 µM (active)
Interleukin-8 [5]
  IC50: > 79 µM (inactive)

## Fc1ccc2[nH]c3c(NCCN4CCOCC4)ncnc3c2c1
[6]
  AC50: 14.9 µM (active)

## O=C(CSc1ccc2nnc(-c3ccccn3)n2n1)Nc1nccs1
[7]
  AC50: 76.4 µM (active)
Nonstructural protein 1
  IC50: 43.5 µM (active)

## O=C(Nc1ccc2snnc2c1)N1CCOCC1
[6]
  AC50: 8.02 µM (active)

## COc1ccc(C(=O)Nc2ccc3ccccc3c2)cc1OC
[8]
  IC50: > 99 µM (inactive)
Caspase-3
  IC50: 14.9 µM (active)
[9]
  IC50: > 99 µM (inactive)

## O=C(NC1CCCC(C(F)(F)F)C1)c1ccc([N+](=O)[O-])o1 (stereo not drawn)
[10]
  IC50: 23.5 µM (inactive)
Steroidogenic factor 1
  IC50: 0.772 µM (active)
[11]
  IC50: 35.9 µM (inactive)
[12]
  AC50: 11.2 µM (active)
[13]
  CC50: 8.8 µM (active)

## Cc1cc(Br)cc(Br)c1OCC(=O)NNC(=O)Nc1ccccc1
[14]
  IC50: 119 µM (inactive)
[15]
  IC50: 83.3 µM (inactive)

## CC1=NN(C(=O)c2ccc(Br)cc2)C(O)(C(F)(F)OC(F)(F)F)C1 (stereo not drawn)
[1]
  IC50: 4.84 µM (active)
[2]
  IC50: > 20 µM (inactive)
[3]
  EC50: 46 µM (active)

## O=C(Nc1nnc(-c2ccco2)o1)c1ccc(S(=O)(=O)N2CCOCC2)cc1
[7]
  AC50: 117 µM (active)
[16]
  CC50: > 40 µM (active)

## COC(=O)c1ccc(N2CCCCC2)c(NC(=O)c2ccco2)c1
[10]
  IC50: 6.04 µM (active)
Steroidogenic factor 1
  IC50: 3.89 µM (active)
[11]
  IC50: 18.7 µM (inactive)
